Blank lines part the entries; values can stand above or below the substance they belong to. Positions of bridges follow the written chain, without caps; N, C: chain ends. Chains are numbered I, II in the order given. No end group written: not given here.
Columns and labels:
[1] = test system: double-Ig module (Ig1-Ig2) of NCAM; assay: Surface plasmon resonance, negative control protein; assay type: binding; details: SPR
Procedure: The binding analysis was performed using a Biacore 2000 instrument (GE Healthcare Life Sciences) that contained 150 mM NaCl as running buffer at 25°C with 10 mM sodium phosphate (pH 7.4). The flow rate was 5 μl/min during immobilization. Ilantide peptide, IL-1β or IL-1Ra was immobilized on a CM4 sensor chip according to the manufacturer’s instructions, after which the recombinant ectodomain of IL-1RI (R&D Systems) was injected. The neural cell adhesion molecule (NCAM) immunoglobulin modules 1 and 2 (Ig1 and Ig2) were used as a negative control protein [9]. The data were analyzed using nonlinear curve-fitting with the manufacturer’s software.

[2] = test system: HEK-Blue IL-1β cells (IL-1RI / NF-κB); assay: IL-1β-induced NF-κB activation, SEAP reporter; assay type: cell-based; details: 1.2 pM IL-1β, 24 hours, SEAP read at 600 nm, four independent experiments
Procedure: HEK-Blue IL-1β cells that contained an IL-1β-sensitive reporter (InvivoGen, San Diego, CA, USA) and HEK-Blue IL-6 cells that contained an IL-6-sensitive reporter (InvivoGen) were grown at 37°C with 5% CO2 in Dulbecco’s modified Eagle’s medium (DMEM) supplemented with 5% (vol/vol) fetal calf serum (FCS), 4.5 g/L glucose, 2 mM GlutaMAX medium, 100 U/ml penicillin, 100 μg/ml streptomycin (all obtained from Gibco BRL/Life Technologies, Taastrup, Denmark), 100 μg/ml zeocin, 200 μg/ml hygromycin and 100 μg/ml Normocin (all purchased from InvivoGen).
HEK-Blue IL-1β cells allow the monitoring of the activation of the NF-κB pathway specifically in response to IL-1β. They express a NF-κB-inducible secreted embryonic alkaline phosphatase (SEAP) reporter gene. The binding of IL-1β to its receptor IL-1RI on the surface of HEK-Blue IL-1β cells triggers a signaling cascade that leads to the activation NF-κB and the subsequent production of SEAP. HEK-Blue IL-1β cells were grown as described above. The cells were seeded onto a 96-well plate at a density 3.5 × 10^5 cells/ml. For the NF-κB activation assay, the cells were treated with 1.2 pM IL-1β alone or together with sIL-1RI, IL-1Ra or various concentrations of Ilantide. After 24 hours of incubation at 37°C, 150 μl of the cell supernatants were added to each well of a 96-well plate together with 50 μl of QUANTI-Blue (InvivoGen), incubated at 37°C for 40 minutes and measured in an enzyme-linked immunosorbent assay (ELISA) reader at 600 nm to determine the expression levels of reporter genes activated by NF-κB.

[3] = test system: Cerebellar granule neurons; assay: Survival of cerebellar granule neurons induced to undergo apoptosis by low potassium; assay type: cell-based, rat; details: 5 mM KCl, survival estimated 48 hours later
Procedure: (§1) Cerebellar granule neurons (CGNs) were prepared from 7-day-old Wistar rats (from Charles River Laboratories, Sulzfeld, Germany; or from Hygind Møllegård Erik Møllegaard Hansen, Ejby, Denmark) as previously described. Briefly, the cerebella were cleared of meninges and blood vessels, roughly homogenized by chopping and trypsinized. The cells were washed in the presence of DNAse I and soybean trypsin inhibitor (Sigma-Aldrich, St Louis, MO, USA), and cellular debris was pelleted by centrifugation. The fibroblastoid mouse cell line L929 (LVN; European Collection of Cell Cultures, Porton Down, UK) was routinely grown at 37°C with 5% CO2 in DMEM supplemented with 10% (vol/vol) FCS, 2 mM GlutaMAX, 100 U/ml penicillin and 100 μg/ml streptomycin.
(§2) Cerebellar granule neurons were plated at a density of 1 × 10^5 cells/cm^2 on poly-L-lysine-coated, eight-well Permanox Lab-Tek chamber slides (Nunc) in Neurobasal-A medium supplemented with 2% (vol/vol) B27 (Gibco BRL), 0.5% (vol/vol) GlutaMAX, 100 U/ml penicillin and 100 μg/ml streptomycin. The CGN survival assay was performed as previously described. The neurite outgrowth assay was also performed as previously described.
Figure 5 Effect of Ilantide and interleukin 1 receptor antagonist on survival of cerebellar granule neurons induced to undergo apoptosis. The neurons were allowed to differentiate for 7 days in a high-potassium (40 mM) medium before apoptosis was induced by changing to a low-potassium medium (5 mM). Survival was estimated 48 hours later. (A) The effect of insulin-like growth factor 1 (IGF-1), interleukin 1 receptor antagonist (IL-1Ra) and IL-1β on cerebellar granule neuron (CGN) apoptosis induced by 5 mM KCl. (B) The effect of Ilantide-m on CGN apoptosis induced by 5 mM KCl. […] The results from at least four independent experiments are expressed as mean ± SEM with untreated cultures induced to undergo apoptosis by 5 mM KCl set at 100%. *P < 0.05 and **P < 0.01 compared with untreated cultures induced to undergo apoptosis (one-way analysis of variance followed by Newman-Keuls post hoc test).

[4] = test system: Cerebellar granule neurons; assay: Neurite outgrowth from cerebellar granule neurons; assay type: cell-based, rat; details: 7-day-old CGNs grown on fibroblast cells, 24 hours
Procedure: as §1, §2
Figure 6 Effect of Ilantide on neurite outgrowth from cerebellar granule neurons. Cerebellar granule neuron cultures were treated with interleukin 1 receptor antagonist (IL-1Ra) (A), soluble interleukin 1 receptor type I (sIL-1RI) (B), Ilantide-t (C) or IL-1β (D) for 24 hours. The cultures were fixed and immunostained with rabbit anti-rat growth-associated protein 43 (anti-GAP-43) primary antibodies and then with secondary Alexa Fluor 488 goat anti-rabbit antibodies. (E) Effect of IL-1β on neurite outgrowth induced by IL-1Ra. (F) Effect of IL-1β on neurite outgrowth induced by Ilantide-t. The results from three to four independent experiments are expressed as percentage ± SEM with untreated controls set at 100%, corresponding to an average neurite length of 19.3 ± 4.1 μm. *P < 0.05 and **P < 0.01 compared with untreated controls (A to D) or cultures treated with either IL-1Ra or Ilantide alone (E and F) by one-way analysis of variance followed by the Newman-Keuls post hoc test).

Binding to double-Ig module of NCAM (negative control) [1]: no significant binding
Substance: IL-1Ra: recombinant interleukin 1 receptor antagonist purchased from R&D Systems
Inhibition of NF-κB activation induced by IL-1β [2]: dose-dependently inhibited
CGN survival after potassium withdrawal [3]: concentration-dependently promoted CGN survival
Neurite outgrowth from CGNs [4]: significantly induced neurite outgrowth

Substance: I: SGRKSSKMQAKK-NH2 / II: SGRKSSKMQAK / III: SGRKSSKMQA / IV: SGRKSSKMQA (amide I:11-IV:C, I:12-II:C, II:11-III:C; C-terminus assumed) [Ilantide-t]
Binding to double-Ig module of NCAM (negative control) [1]: no significant binding
Inhibition of NF-κB activation induced by IL-1β [2]: dose-dependently inhibited
CGN survival after potassium withdrawal [3]: concentration-dependently promoted CGN survival
Neurite outgrowth from CGNs [4]: significantly induced neurite outgrowth

From publication PMC3923439, “Anti-inflammatory properties of a novel peptide interleukin 1 receptor antagonist” (Journal of Neuroinflammation, 2014)
